Test results published in US7879846B2, “Serine hydrolase inhibitors” (Kyorin Pharmaceutical Co.., Ltd., priority 2006, dated 2011).

These compounds were tested against T1, Human sputum neutrophil elastase (Homo sapiens, UniProt P08246) (assay: Inhibitor IC50 against human neutrophil elastase (fluorogenic MeOSuc-AAPV-AMC substrate)). Details: 20 min preincubation, read-out: HNE IC50.
T1 construct: purchased Elastin Products Co; host or cells: human sputum (natural source)
T1 sequence (P08246 30-247 limits assumed): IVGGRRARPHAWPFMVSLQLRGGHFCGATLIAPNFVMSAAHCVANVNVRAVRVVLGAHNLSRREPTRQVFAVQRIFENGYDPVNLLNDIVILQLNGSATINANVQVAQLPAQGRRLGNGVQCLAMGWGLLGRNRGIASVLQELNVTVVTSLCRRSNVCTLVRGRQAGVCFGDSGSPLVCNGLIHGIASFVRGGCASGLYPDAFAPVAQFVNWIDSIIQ
Type: biochemical
Method: Determination of Inhibitor IC50 Values Against Human Neutrophil Elastase
Human sputum neutrophil elastase (Elastin Products Co.) was diluted into Assay Buffer A (200 mM Tris pH 7.4, 1 mg/ml BSA) to a working concentration of 0.55 U/ml. […] DMSO alone was used as the negative control. MeOSuc-AAPV-AMC (Bachem) substrate was dissolved in DMSO to 20 mM and further diluted to 1 mM in Assay Buffer A immediately before use. Substrate was added to the elastase assay at a final concentration of 1×10^−4 M. The reaction was allowed to proceed for 20 minutes at room temperature and then quenched with acetic acid at a final concentration of 3% (v/v). […] Fluorescence intensity versus inhibitor concentration was plotted and fit to the Hill equation to quantify IC50 values.

SMILES | IC50 [nM]
CCc1cccc2cc(-c3c[n+]([O-])ccc3Sc3ccc(Cl)cc3)oc(=O)c12 [Compound 86] | 61 to 150
COc1cc(C(C)C)c2c(=O)oc(-c3cccnc3N(C)C3CCN(C)C3)nc2c1 (stereo not drawn) [Compound 117] | 61 to 150
CCc1cc(OC)cc2nc(-c3cccnc3N(CC)CCCN3CCOCC3)oc(=O)c12 [Compound 238] | < 15
COc1cc(C2CC2)c2c(=O)oc(-c3cccnc3N3CCCN(C)CC3)nc2c1 [Compound 140] | 61 to 150
COCCN1CCN(c2ncccc2-c2nc3cc(OC)cc(C(C)C)c3c(=O)o2)CC1 [Compound 113] | 61 to 150
CCCc1cc(OC)cc2nc(-c3cccnc3N3CCN(CCN(C)C)CC3)oc(=O)c12 [Compound 158] | 16 to 60
O=c1oc(-c2cccs2)nc2ccccc12 [Compound 8] | > 150
CCc1cc(OC)cc2nc(-c3cccnc3N3CCC(N4CCCC4)CC3)oc(=O)c12 [Compound 215] | < 15
CCc1cccc2nc(-c3cccnc3N3CCN4CCCC4C3)oc(=O)c12 (stereo not drawn) [Compound 104] | < 15
CCc1cc(OC)cc2nc(-c3cccnc3N3CCCCC3)oc(=O)c12 [Compound 226] | 16 to 60
CCc1cccc2nc(-c3cccnc3N3CCC[C@H]3CN3CCCC3)oc(=O)c12 [Compound 98] | < 15
CCc1cc(OC)cc2nc(-c3cccnc3N3C[C@H](CNC4CC4)[C@H](F)C3)oc(=O)c12 [Compound 258] | 16 to 60
Cc1cccc2nc(-c3cccnc3SCCS(=O)(=O)c3ccccc3)oc(=O)c12 [Compound 29] | 16 to 60
COc1cc(C(C)C)c2c(=O)oc(-c3cnn(C)c3N(C)CCN(C)C)nc2c1 [Compound 124] | > 150
CCc1cc(OC)cc2nc(-c3cccnc3N3CCN(c4ccccn4)CC3)oc(=O)c12 [Compound 253] | < 15
CCc1cc(OC)cc2nc(-c3cccnc3N3CCC(CCN4CCOCC4)CC3)oc(=O)c12 [Compound 247] | < 15
CCc1cc(OC)cc2nc(-c3cccnc3N3CCC(S(=O)(=O)O)CC3)oc(=O)c12 [Compound 209] | 16 to 60
O=c1oc(-c2ccccn2)nc2cccc(Cl)c12 [Compound 12] | 61 to 150
CCCN1CCN(c2ncccc2-c2nc3cc(OC)cc(CC)c3c(=O)o2)CC1 [Compound 222] | 16 to 60
CCc1cccc2nc(-c3cccnc3N3CC[N+](C)(CCOC)CC3)oc(=O)c12 [Compound 96] | < 15
CCc1cc(OC)cc2nc(-c3cccnc3N3CC[C@H](N4CCOCC4)C3)oc(=O)c12 [Compound 262] | < 15
CCCc1cc(OC)cc2nc(-c3cccnc3N3CCC(C(=O)C[S+](C)[O-])CC3)oc(=O)c12 (stereo not drawn) [Compound 163] | 61 to 150
Cc1cccc2nc(-c3cccnc3OCCOCCOCCOCCOc3ncccc3C(=O)O)oc(=O)c12 [Compound 58] | 61 to 150
CCc1cccc2nc(-c3cccnc3-n3cc[n+](Cc4ccc(Cl)cc4)c3)oc(=O)c12 [Compound 94] | 16 to 60
COc1cc(C(C)C)c2c(=O)oc(-c3cnn(C)c3N3CC[C@H](N(C)C)C3)nc2c1 [Compound 126] | > 150

SMILES | IC50 [nM]
CCc1cc(OC)cc2nc(-c3cccnc3N3CCC(N4CCCCC4)CC3)oc(=O)c12 [Compound 216] | < 15
Cc1cccc2nc(-c3cnccn3)oc(=O)c12 [Compound 5] | 61 to 150
CCc1cc(OC)cc2nc(-c3cccnc3N3CCN(C(C)C)CC3)oc(=O)c12 [Compound 201] | 16 to 60
Cc1cccc2nc(-c3cccnc3OCCOCCOCCOCCO)oc(=O)c12 [Compound 57] | 61 to 150
Cc1ccc(Sc2ncccc2-c2nc3cccc(Cl)c3c(=O)o2)cc1 [Compound 28] | 61 to 150
Cc1cccc2nc(-c3cccnc3N3CCN(CCN4CCOCC4)CC3)oc(=O)c12 [Compound 179] | 16 to 60
CCc1cc(OC)cc2nc(-c3cccnc3N3CC[C@@H](N(C)CCOC)C3)oc(=O)c12 [Compound 265] | < 15
CCc1cccc2nc(-c3cccnc3N3CC[N+](C)(CC(N)=O)CC3)oc(=O)c12 [Compound 101] | < 15
CCc1cc(OC)cc2nc(-c3cccnc3N3CCC(C)(C(=O)NCCN(CC)CC)CC3)oc(=O)c12 [Compound 274] | < 15
COc1cc(C2CCC2)c2c(=O)oc(-c3cccnc3N3CCN(CCN4CCOCC4)CC3)nc2c1 [Compound 187] | > 150
Cc1cccnc1-c1nc2cccc(C)c2c(=O)o1 [Compound 19] | > 150
CCc1cc(OC)cc2nc(-c3cccnc3N3CCN(CCNC(=O)OC(C)(C)C)CC3)oc(=O)c12 [Compound 202] | 16 to 60
CCc1cc(OC)cc2nc(-c3cccnc3N3CCN(c4cccnc4)CC3)oc(=O)c12 [Compound 240] | < 15
COc1cc(C2CCC2)c2c(=O)oc(-c3cccnc3N3CC[C@@H](N(C)C)C3)nc2c1 [Compound 175] | > 150
CCc1cc(OC)cc2nc(-c3cccnc3N3CCN(c4ccccc4)CC3)oc(=O)c12 [Compound 223] | 61 to 150
COc1cc(C(C)C)c2c(=O)oc(-c3cccnc3N3CC[N+](C)(CC(N)=O)CC3)nc2c1 [Compound 129] | 61 to 150
CCc1cccc2nc(-c3cccnc3N3CCN(CCOC)CC3)oc(=O)c12 [Compound 89] | < 15
CCc1cccc2nc(-c3cccnc3N3CCN(CCN4CCOCC4)CC3)oc(=O)c12 [Compound 152] | < 15
CCc1cccc2nc(-c3cccnc3N3CCCN(C)CC3)oc(=O)c12 [Compound 92] | < 15
CCc1cc(OC)cc2nc(-c3cccnc3N(C)CCN(C)C)oc(=O)c12 [Compound 239] | < 15
CCc1cccc2nc(-c3cccnc3N3CC[N+](C)(CC4CC4)CC3)oc(=O)c12 [Compound 103] | < 15
COc1cc(C2CCC2)c2c(=O)oc(-c3cccnc3N3CCN(CCN(C)C)CC3)nc2c1 [Compound 186] | 61 to 150
CCc1cc(OC)cc2nc(-c3cccnc3N3CCCN(C)CC3)oc(=O)c12 [Compound 195] | < 15
CCc1cc(OC)cc2nc(-c3cccnc3N(C)CCCN(C)C)oc(=O)c12 [Compound 241] | < 15
C#CCOC(=O)NCCN1CCN(c2ncccc2-c2nc3cc(OC)cc(CC)c3c(=O)o2)CC1 [Compound 227] | 16 to 60

SMILES | IC50 [nM]
CCc1cccc2nc(-c3cccnc3N3CCN(CCN(C)C)CC3)oc(=O)c12 [Compound 162] | < 15
COc1cc(C(C)C)c2c(=O)oc(-c3cccnc3N3CCN(CCN(C)C)CC3)nc2c1 [Compound 115] | 61 to 150
Cc1cccc2nc(-c3cccnc3N3CCC[C@H]3C(=O)OC(C)(C)C)oc(=O)c12 [Compound 32] | 16 to 60
CCc1cc(OC)cc2nc(-c3cccnc3N3C[C@@H](CNC4CC4)[C@H](C)C3)oc(=O)c12 [Compound 259] | 16 to 60
CCc1cc(OC)cc2nc(-c3cccnc3N3CC[C@H](N4CCNC(=O)C4)C3)oc(=O)c12 [Compound 261] | < 15
C#CCCN1CCN(c2ncccc2-c2nc3cc(OC)cc(CC)c3c(=O)o2)CC1 [Compound 228] | < 15
Cc1cccc2nc(-c3cccnc3OCCOCCOCCOCCOc3ncccc3-c3nc4cccc(C)c4c(=O)o3)oc(=O)c12 [Compound 59] | 61 to 150
CCc1cccc2nc(-c3cccnc3N3CC[C@@H](N(C)C)C3)oc(=O)c12 [Compound 100] | < 15
COc1cc(C2CC2)c2c(=O)oc(-c3cccnc3N3CCN(CCN(C)C)CC3)nc2c1 [Compound 170] | 61 to 150
CCc1cc(OC)cc2nc(-c3cccnc3N3CCC(N4CCOCC4)CC3)oc(=O)c12 [Compound 251] | < 15
CCCc1cc(OC)cc2nc(-c3cccnc3N3CCN(CCOC)CC3)oc(=O)c12 [Compound 150] | 61 to 150
CCc1cc(OC)cc2nc(-c3cccnc3N3CC4CC3CN4CC)oc(=O)c12 (stereo not drawn) [Compound 254] | 16 to 60
CCc1cccc2nc(-c3cccnc3N3CC[N+](C)(C)CC3)oc(=O)c12 [Compound 95] | < 15
CCCc1cc(OC)cc2nc(-c3cccnc3N3CC[C@H](N(C)C)C3)oc(=O)c12 [Compound 148] | 16 to 60
COc1cc(C2CC2)c2c(=O)oc(-c3cccnc3N(C)CCN(C)C)nc2c1 [Compound 172] | 61 to 150
CCc1cccc2nc(-c3cccnc3N3CCC(N(C)C)C3)oc(=O)c12 (stereo not drawn) [Compound 85] | < 15
CCc1cc(N(C)C)cc2nc(-c3cccnc3N(C)C3CCN(C)C3)oc(=O)c12 (stereo not drawn) [Compound 144] | > 150
CCc1cccc2nc(-c3cccnc3-n3cc[n+](CCCS(=O)(=O)[O-])c3)oc(=O)c12 [Compound 87] | < 15
CCc1cc(OC)cc2nc(-c3cccnc3N3CCN(c4nccs4)CC3)oc(=O)c12 [Compound 250] | < 15
CCOC(=O)CCN1CCN(c2ncccc2-c2nc3cc(OC)cc(CC)c3c(=O)o2)CC1 [Compound 221] | 16 to 60
CCCc1cc(OC)cc2nc(-c3cccnc3N(C)C3CCN(C)C3)oc(=O)c12 (stereo not drawn) [Compound 146] | > 150
COc1cc(C(C)C)c2c(=O)oc(-c3cccnc3N3CC[N+](C)(C)CC3)nc2c1 [Compound 130] | 61 to 150
COCCN1CCN(c2ncccc2-c2nc3cc(OC)cc(C4CC4)c3c(=O)o2)CC1 [Compound 167] | 61 to 150
Cc1cccc2nc(-c3cccnc3N3CC[C@H](N(C)C)C3)oc(=O)c12 [Compound 177] | 16 to 60
CCc1cc(OC)cc2nc(-c3cccnc3N3CC[C@@H](N4CCNC(=O)C4)C3)oc(=O)c12 [Compound 266] | < 15
